Test results taken from patent US12291519B2, “2-hydroxycycloalkane-1-carbamoyl” (Idorsia Pharmaceuticals Ltd, priority 2019, dated 2025).

Key:
human Gal-3 (hGal-3) = human Gal-3 (hGal-3) (Homo sapiens (Human), UniProt P17931); test: Competitive binding assay: biotinylated hGal-3 binding to microplate-adsorbed asialofetuin (ASF); settings: Activity on hGal-3; binding of biotinylated hGal-3 to ASF-coated plates; mean values
In short: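 Serially diluted compounds competed with biotinylated human Gal-3 for binding to plate-adsorbed asialofetuin over 3 h at 4 °C. Bound Gal-3 was detected with streptavidin-peroxidase (80 ng/mL, 1 h, 4 °C) and ABTS substrate. IC50 values are means of several measurements.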

human Gal-1 (hGal-1) = test: Competitive binding assay: biotinylated hGal-1 binding to microplate-adsorbed asialofetuin (ASF); settings: Activity on hGal-1; binding of biotinylated hGal-1 to ASF-coated plates; mean values
Chain of human Gal-1 (hGal-1) (P09382 2-135 limits assumed): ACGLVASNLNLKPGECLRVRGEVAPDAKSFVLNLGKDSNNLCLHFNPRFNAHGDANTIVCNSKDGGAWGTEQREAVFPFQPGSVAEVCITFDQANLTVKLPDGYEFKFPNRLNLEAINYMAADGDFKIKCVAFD
In short: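 Biotinylated hGal-1 (300–1000 ng/mL; optionally a cysteine-free all-serine variant) incubated 3 h at 4 °C with compound on asialofetuin-coated plates, then streptavidin-peroxidase 1 h at 4 °C. ABTS readout at OD 410 nm after 30–45 min; IC50 given as mean of several runs.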

Chain of human Gal-3 (hGal-3) (P17931 whole entry): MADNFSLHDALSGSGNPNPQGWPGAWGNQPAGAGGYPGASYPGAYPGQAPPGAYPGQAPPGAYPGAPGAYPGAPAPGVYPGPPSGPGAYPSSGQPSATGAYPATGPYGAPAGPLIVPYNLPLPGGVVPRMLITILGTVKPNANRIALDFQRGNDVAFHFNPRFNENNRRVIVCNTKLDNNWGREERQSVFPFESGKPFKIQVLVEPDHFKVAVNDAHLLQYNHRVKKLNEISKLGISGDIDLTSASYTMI

Structure (SMILES)	IC50 (human Gal-3 (hGal-3)) [nM]	IC50 (human Gal-1 (hGal-1)) [nM]
CC(=O)O[C@@H]1[C@@H](n2cc(-c3cc(F)c(C)c(F)c3)nn2)[C@@H](O)[C@@H](CO)O[C@H]1C(=O)N(Cc1ccnn1C)[C@H]1CCCC[C@@H]1O [Example 51, (2R,3R,4S,5R,6R)-4-(4-(3,5-difluoro-4-methylphenyl)-1H-1,2,3-triazol-1-yl)-5-hydroxy-2-(((1S,2S)-2-hydroxycyclohexyl)((1-methyl-1H-pyrazol-5-yl)methyl)carbamoyl)-6-(hydroxymethyl)tetrahydro-2H-pyran-3-yl acetate]	58	11200
O=C([C@@H]1O[C@H](CO)[C@H](O)[C@H](n2cc(-c3cc(F)c(F)c(F)c3)nn2)[C@H]1O)N(Cc1cnccc1C(F)(F)F)[C@H]1CCCC[C@@H]1O [Example 10, (2R,3R,4S,5R,6R)-3,5-dihydroxy-N-((1S,2S)-2-hydroxycyclohexyl)-6-(hydroxymethyl)-N-((4-(trifluoromethyl)pyridin-3-yl)methyl)-4-(4-(3,4,5-trifluorophenyl)-1H-1,2,3-triazol-1-yl)tetrahydro-2H-pyran-2-carboxamide]	122	1690
CO[C@@H]1[C@@H](n2cc(-c3cc(F)c(F)c(F)c3)nn2)[C@@H](O)[C@@H](CO)O[C@H]1C(=O)N(c1ccc2nc(C)sc2c1)[C@H]1CCCC[C@@H]1O [Example 94, (2R,3R,4S,5R,6R)-5-hydroxy-N-((1S,2S)-2-hydroxycyclohexyl)-6-(hydroxymethyl)-3-methoxy-N-(2-methylbenzo[d]thiazol-6-yl)-4-(4-(3,4,5-trifluorophenyl)-1H-1,2,3-triazol-1-yl)tetrahydro-2H-pyran-2-carboxamide]	31	254
CO[C@@H]1[C@@H](n2cc(-c3cc(F)c(F)c(F)c3)nn2)[C@@H](O)[C@@H](CO)O[C@H]1C(=O)N(Cc1nccn1C)[C@H]1CCCC[C@@H]1O [Example 37, (2R,3R,4S,5R,6R)-5-hydroxy-N-((1S,2S)-2-hydroxycyclohexyl)-6-(hydroxymethyl)-3-methoxy-N-((1-methyl-1H-imidazol-2-yl)methyl)-4-(4-(3,4,5-trifluorophenyl)-1H-1,2,3-triazol-1-yl)tetrahydro-2H-pyran-2-carboxamide]	337	5770
CO[C@@H]1[C@@H](n2cc(-c3cc(F)c(F)c(F)c3)nn2)[C@@H](O)[C@@H](CO)O[C@H]1C(=O)N(c1ccc2ccccc2c1)[C@H]1CCCC[C@@H]1O [Example 197, (2R,3R,4S,5R,6R)-5-hydroxy-N-((1S,2S)-2-hydroxycyclohexyl)-6-(hydroxymethyl)-3-methoxy-N-(naphthalen-2-yl)-4-(4-(3,4,5-trifluorophenyl)-1H-1,2,3-triazol-1-yl)tetrahydro-2H-pyran-2-carboxamide]	97	6830
CO[C@@H]1[C@@H](n2cc(-c3cc(F)c(F)c(F)c3)nn2)[C@@H](O)[C@@H](CO)O[C@H]1C(=O)N(Cc1sccc1Cl)[C@H]1CCCC[C@@H]1O [Example 35, (2R,3R,4S,5R,6R)-N-((3-chlorothiophen-2-yl)methyl)-5-hydroxy-N-((1S,2S)-2-hydroxycyclohexyl)-6-(hydroxymethyl)-3-methoxy-4-(4-(3,4,5-trifluorophenyl)-1H-1,2,3-triazol-1-yl)tetrahydro-2H-pyran-2-carboxamide]	210	1630
COc1cc(F)cc(N(C(=O)[C@@H]2O[C@H](CO)[C@H](O)[C@H](n3cc(-c4cc(F)c(F)c(F)c4)nn3)[C@H]2OC)[C@H]2CCCC[C@@H]2O)c1 [Example 118, (2R,3R,4S,5R,6R)-N-(3-fluoro-5-methoxyphenyl)-5-hydroxy-N-((1S,2S)-2-hydroxycyclohexyl)-6-(hydroxymethyl)-3-methoxy-4-(4-(3,4,5-trifluorophenyl)-1H-1,2,3-triazol-1-yl)tetrahydro-2H-pyran-2-carboxamide]	26	1480
CO[C@@H]1[C@@H](n2cc(-c3cc(F)c(F)c(F)c3)nn2)[C@@H](O)[C@@H](CO)O[C@H]1C(=O)N(Cc1scnc1C)[C@H]1CCCC[C@@H]1O [Example 36, (2R,3R,4S,5R,6R)-5-hydroxy-N-((1S,2S)-2-hydroxycyclohexyl)-6-(hydroxymethyl)-3-methoxy-N-((4-methylthiazol-5-yl)methyl)-4-(4-(3,4,5-trifluorophenyl)-1H-1,2,3-triazol-1-yl)tetrahydro-2H-pyran-2-carboxamide]	231	1030
CO[C@@H]1[C@@H](n2cc(-c3cc(F)c(F)c(F)c3)nn2)[C@@H](O)[C@@H](CO)O[C@H]1C(=O)N(c1ccc2nc(C)[nH]c2c1)[C@H]1CCCC[C@@H]1O [Example 123, (2R,3R,4S,5R,6R)-5-hydroxy-N-((1S,2S)-2-hydroxycyclohexyl)-6-(hydroxymethyl)-3-methoxy-N-(2-methyl-1H-benzo[d]imidazol-6-yl)-4-(4-(3,4,5-trifluorophenyl)-1H-1,2,3-triazol-1-yl)tetrahydro-2H-pyran-2-carboxamide]	85	5880
CO[C@@H]1[C@@H](n2cc(-c3cc(F)c(N4CCOCC4)c(F)c3)nn2)[C@@H](O)[C@@H](CO)O[C@H]1C(=O)N(c1cc(Cl)cc(Cl)c1)[C@H]1CCCC[C@@H]1O [Example 203]	24	678
O=C([C@@H]1O[C@H](CO)[C@H](O)[C@H](n2cc(-c3cc(F)c(F)c(F)c3)nn2)[C@H]1O)N(Cc1csc(Br)n1)[C@H]1CCCC[C@@H]1O [Example 20, (2R,3R,4S,5R,6R)-N-((2-bromothiazol-4-yl)methyl)-3,5-dihydroxy-N-((1S,2S)-2-hydroxycyclohexyl)-6-(hydroxymethyl)-4-(4-(3,4,5-trifluorophenyl)-1H-1,2,3-triazol-1-yl)tetrahydro-2H-pyran-2-carboxamide]	352	11700
CC(=O)O[C@@H]1[C@@H](n2cc(-c3cc(F)cc(F)c3)nn2)[C@@H](O)[C@@H](CO)O[C@H]1C(=O)N(Cc1ccnn1C)[C@H]1CCCC[C@@H]1O [Example 49, (2R,3R,4S,5R,6R)-4-(4-(3,5-difluorophenyl)-1H-1,2,3-triazol-1-yl)-5-hydroxy-2-(((1S,2S)-2-hydroxycyclohexyl)((1-methyl-1H-pyrazol-5-yl)methyl)carbamoyl)-6-(hydroxymethyl)tetrahydro-2H-pyran-3-yl acetate]	129	1940

Further lines, results first:

IC50 (human Gal-3 (hGal-3)) [nM]	IC50 (human Gal-1 (hGal-1)) [nM]	Structure (SMILES)
49	2010	CO[C@@H]1[C@@H](n2cc(-c3cc(F)c(F)c(F)c3)nn2)[C@@H](O)[C@@H](CO)O[C@H]1C(=O)N(c1cccc(F)c1)[C@H]1CCCC[C@@H]1O [Example 114, (2R,3R,4S,5R,6R)-N-(3-fluorophenyl)-5-hydroxy-N-((1S,2S)-2-hydroxycyclohexyl)-6-(hydroxymethyl)-3-methoxy-4-(4-(3,4,5-trifluorophenyl)-1H-1,2,3-triazol-1-yl)tetrahydro-2H-pyran-2-carboxamide]
56	1560	COc1cc(C#N)cc(N(C(=O)[C@@H]2O[C@H](CO)[C@H](O)[C@H](n3cc(-c4cc(F)cc(Cl)c4)nn3)[C@H]2OC)[C@H]2CCCC[C@@H]2O)c1 [Example 141, (2R,3R,4S,5R,6R)-4-(4-(3-chloro-5-fluorophenyl)-1H-1,2,3-triazol-1-yl)-N-(3-cyano-5-methoxyphenyl)-5-hydroxy-N-((1S,2S)-2-hydroxycyclohexyl)-6-(hydroxymethyl)-3-methoxytetrahydro-2H-pyran-2-carboxamide]
17	210	CO[C@@H]1[C@@H](n2cc(-c3ccc(Cl)c(Cl)c3)nn2)[C@@H](O)[C@@H](CO)O[C@H]1C(=O)N(c1cc(Cl)cc(C#N)c1)[C@H]1CCCC[C@@H]1O [Example 186, (2R,3R,4S,5R,6R)-N-(3-chloro-5-cyanophenyl)-4-(4-(3,4-dichlorophenyl)-1H-1,2,3-triazol-1-yl)-5-hydroxy-N-((1S,2S)-2-hydroxycyclohexyl)-6-(hydroxymethyl)-3-methoxytetrahydro-2H-pyran-2-carboxamide]
62	2110	COc1cccc(N(C(=O)[C@@H]2O[C@H](CO)[C@H](O)[C@H](n3cc(-c4cc(F)cc(F)c4)nn3)[C@H]2OC)[C@H]2CCCC[C@@H]2O)c1 [Example 79]
81	343	CO[C@@H]1[C@@H](n2cc(-c3cc(F)cc(Br)c3)nn2)[C@@H](O)[C@@H](CO)O[C@H]1C(=O)N(c1cccc(C#N)c1)[C@H]1CCCC[C@@H]1O [Example 148, (2R,3R,4S,5R,6R)-4-(4-(3-bromo-5-fluorophenyl)-1H-1,2,3-triazol-1-yl)-N-(3-cyanophenyl)-5-hydroxy-N-((1S,2S)-2-hydroxycyclohexyl)-6-(hydroxymethyl)-3-methoxytetrahydro-2H-pyran-2-carboxamide]
21	341	CO[C@@H]1[C@@H](n2cc(-c3ccc(Br)cc3)nn2)[C@@H](O)[C@@H](CO)O[C@H]1C(=O)N(c1cc(Cl)cc(C#N)c1)[C@H]1CCCC[C@@H]1O [Example 202, (2R,3R,4S,5R,6R)-4-(4-(4-bromophenyl)-1H-1,2,3-triazol-1-yl)-N-(3-chloro-5-cyanophenyl)-5-hydroxy-N-((1S,2S)-2-hydroxycyclohexyl)-6-(hydroxymethyl)-3-methoxytetrahydro-2H-pyran-2-carboxamide]
50	259	CO[C@@H]1[C@@H](n2cc(-c3cccc(F)c3C)nn2)[C@@H](O)[C@@H](CO)O[C@H]1C(=O)N(c1cc(Cl)cc(C#N)c1)[C@H]1CCCC[C@@H]1O [Example 75, (2R,3R,4S,5R,6R)-N-(3-chloro-5-cyanophenyl)-4-(4-(3-fluoro-2-methylphenyl)-1H-1,2,3-triazol-1-yl)-5-hydroxy-N-((1S,2S)-2-hydroxycyclohexyl)-6-(hydroxymethyl)-3-methoxytetrahydro-2H-pyran-2-carboxamide]
